Results on 9 compounds are retold here after ChEMBL document CHEMBL6103613 (J Med Chem, 2025).

In data set [1] the test system is Staphylococcus aureus. The experiment in a line: Antimicrobial activity against methicillin-resistant Staphylococcus aureus clinical isolate 4 assessed as inhibition of visible bacterial growth incubated for 18 hrs by CLSI based analysis. The data set is classed as functional.
Data set [2] deals with Staphylococcus aureus. The experiment in a line: Antimicrobial activity against Staphylococcus aureus ATCC 25923 assessed as inhibition of visible bacterial growth incubated for 18 hrs by CLSI based analysis. Type of data set: functional.
The test system of another data set is Bacillus subtilis. The data set can be described thus: Antimicrobial activity against Bacillus subtilis ATCC 23875 assessed as inhibition of visible bacterial growth incubated for 18 hrs by CLSI based analysis. The data set is classed as functional.
A further data set has as its system Enterococcus gallinarum. The data set can be described thus: Antimicrobial activity against Enterococcus gallinarum ATCC 49573 assessed as inhibition of visible bacterial growth incubated for 18 hrs by CLSI based analysis. The data set is classed as functional.
In a further data set the test system is Enterococcus faecium. The experiment in a line: Antimicrobial activity against vancomycin-resistant Enterococcus faecium assessed as inhibition of visible bacterial growth incubated for 18 hrs by CLSI based analysis. Type of data set: functional.
For data set [3], the system named is Staphylococcus aureus. The experiment in a line: Antimicrobial activity against methicillin-resistant Staphylococcus aureus clinical isolate 2 assessed as inhibition of visible bacterial growth incubated for 18 hrs by CLSI based analysis. Type of data set: functional.
For data set [4], the system named is Staphylococcus aureus. The data set can be described thus: Antimicrobial activity against methicillin-resistant Staphylococcus aureus clinical isolate 3 assessed as inhibition of visible bacterial growth incubated for 18 hrs by CLSI based analysis. Type of data set: functional.
Data set [5] relates to Staphylococcus epidermidis. The experiment in a line: Antimicrobial activity against Staphylococcus epidermidis ATCC 12228 assessed as inhibition of visible bacterial growth incubated for 18 hrs by CLSI based analysis. Type of data set: functional.
A further data set has as its system Enterococcus faecalis. The data set can be described thus: Antimicrobial activity against Enterococcus faecalis ATCC 19433 assessed as inhibition of visible bacterial growth incubated for 18 hrs by CLSI based analysis. Type of data set: functional.
In data set [6] the test system is Staphylococcus aureus. The data set can be described thus: Antimicrobial activity against methicillin-resistant Staphylococcus aureus ATCC 43300 assessed as inhibition of visible bacterial growth incubated for 18 hrs by CLSI based analysis. The data set is classed as functional.
The subject of the next data set is Candida albicans. The experiment in a line: Antifungal activity against Candida albicans assessed as reduction in fungal growth incubated for 18 hrs by CLSI based analysis. Type of data set: functional.
Another data set deals with Escherichia coli. The data set can be described thus: Antimicrobial activity against Escherichia coli assessed as inhibition of visible bacterial growth incubated for 18 hrs by CLSI based analysis. Type of data set: functional.
Data set [7] relates to Staphylococcus aureus. The data set can be described thus: Antimicrobial activity against Staphylococcus aureus assessed as inhibition of visible bacterial growth incubated for 18 hrs by CLSI based analysis. Type of data set: functional.
A short description of data set [8]: Therapeutic index, ratio of HC5 for hemolytic activity in mouse Red blood cell to MIC for antimicrobial activity against Staphylococcus aureus ATCC 25923 assessed as inhibition of visible bacterial growth. Type of data set: toxicity, cell-based, RBC. The conditions noted are these: red blood cells, read-out: TI.
Data set [9] can be described thus: Hemolytic activity against mouse Red blood cell incubated for 1 hr. The data set is classed as toxicity, cell-based. Conditions: erythrocyte.

Each structure is given as a SMILES string. In brackets after ≈: the same amount, converted by molar mass.

Turning to `CC(C)C[C@H]1NC(=O)[C@H](Cc2c[nH]c3ccccc23)NC(=O)[C@@H](C(C)C)NC(=O)[C@@H]2CSC(N2)[C@H](C(C)C)NC(=O)[C@@H](CCCCN)NC(=O)[C@H](C(C)C)NC1=O`, the minimal inhibitory concentration (MIC) in the data set with Staphylococcus aureus [1], in the data set on Staphylococcus aureus [2], in the data set with Bacillus subtilis, in the data set on Enterococcus gallinarum, in the data set with Enterococcus faecium and in the data set on Staphylococcus aureus [3] was over 50 µg/mL each time. In addition, the MIC (in the data set on Staphylococcus aureus [4]; in data set [5]; with Enterococcus faecalis; in the data set on Staphylococcus aureus [6]) was over 50 µg/mL throughout.

In the case of `C#CC[C@H]1NC(=O)[C@@H]2CSC(N2)[C@H](C(C)C)NC(=O)[C@@H](C(C)C)NC(=O)[C@H](C(C)C)NC(=O)[C@@H](CCCCN)NC(=O)[C@H](Cc2c(C(c3ccccc3)(c3ccccc3)c3ccccc3)[nH]c3ccccc23)NC1=O`, the MIC (in general, the lowest concentration that inhibits growth of the organism) worked out at 6.25 µg/mL (≈ 6.03 µM) in the data set with Staphylococcus aureus [1]; 6.25 µg/mL (≈ 6.03 µM) with Staphylococcus aureus [2]; 6.25 µg/mL (≈ 6.03 µM) with Bacillus subtilis; 12.5 µg/mL (≈ 12.1 µM) in the data set with Enterococcus gallinarum; 25 µg/mL (≈ 24.1 µM) in the data set with Enterococcus faecium; 3.13 µg/mL (≈ 3.02 µM) in the data set with Candida albicans. Besides, the MIC in the data set with Staphylococcus aureus [3] turned out to be 6.25 µg/mL (≈ 6.03 µM); in the data set with Staphylococcus aureus [4], 12.5 µg/mL (≈ 12.1 µM); in data set [5], 6.25 µg/mL (≈ 6.03 µM); in the data set with Escherichia coli, 3.13 µg/mL (≈ 3.02 µM); with Staphylococcus aureus [7], 3.13 µg/mL (≈ 3.02 µM); in the data set on Enterococcus faecalis, 25 µg/mL (≈ 24.1 µM). Moreover, the MIC in the data set on Staphylococcus aureus [6] was determined as 6.25 µg/mL (≈ 6.03 µM).

As for `CC(C)C[C@H]1NC(=O)[C@H](Cc2c(C(c3ccccc3)(c3ccccc3)c3ccccc3)[nH]c3ccccc23)NC(=O)[C@@H](CCCCN)NC(=O)[C@@H]2CSC(N2)[C@H](C(C)C)NC(=O)[C@@H](C(C)C)NC(=O)[C@H](C(C)C)NC1=O`, the MIC with Staphylococcus aureus [1] amounted to 12.5 µg/mL (≈ 11.9 µM); in the data set on Staphylococcus aureus [2], 6.25 µg/mL (≈ 5.93 µM); with Bacillus subtilis, 6.25 µg/mL (≈ 5.93 µM); in the data set with Enterococcus gallinarum it was 12.5 µg/mL (≈ 11.9 µM); with Enterococcus faecium, 25 µg/mL (≈ 23.7 µM); in the data set with Candida albicans it was 3.13 µg/mL (≈ 2.97 µM). Moreover, the MIC stood at 12.5 µg/mL (≈ 11.9 µM) with Staphylococcus aureus [3]; 25 µg/mL (≈ 23.7 µM) in the data set on Staphylococcus aureus [4]; 12.5 µg/mL (≈ 11.9 µM) in [5]; 3.13 µg/mL (≈ 2.97 µM) with Escherichia coli; 3.13 µg/mL (≈ 2.97 µM) in the data set on Staphylococcus aureus [7]; 12.5 µg/mL (≈ 11.9 µM) with Enterococcus faecalis. Also, the MIC in the data set with Staphylococcus aureus [6] is 12.5 µg/mL (≈ 11.9 µM). Also, in data set [8], the selectivity ratio is 7.44. In data set [9], this compound showed an HC5 of 46.47 µg/mL.

As to `CC(C)[C@@H]1NC(=O)[C@@H](C(C)C)NC(=O)[C@H](C(C)C)NC(=O)[C@@H](CCCCN)NC(=O)[C@H](Cc2c(C(c3ccccc3)c3ccccc3)[nH]c3ccccc23)NC(=O)[C@@H](C(C)C)NC(=O)[C@@H]2CSC1N2`, the MIC in the data set with Staphylococcus aureus [1] stood at 12.5 µg/mL (≈ 13 µM); in the data set on Staphylococcus aureus [2] it was 12.5 µg/mL (≈ 13 µM); in the data set on Bacillus subtilis, 6.25 µg/mL (≈ 6.48 µM); with Enterococcus gallinarum, 25 µg/mL (≈ 25.9 µM); in the data set on Enterococcus faecium, 50 µg/mL (≈ 51.9 µM); with Candida albicans, 3.13 µg/mL (≈ 3.25 µM). The MIC was determined as 12.5 µg/mL (≈ 13 µM) in the data set with Staphylococcus aureus [3]; 12.5 µg/mL (≈ 13 µM) with Staphylococcus aureus [4]; 6.25 µg/mL (≈ 6.48 µM) in data set [5]; 3.13 µg/mL (≈ 3.25 µM) with Escherichia coli; 3.13 µg/mL (≈ 3.25 µM) in the data set on Staphylococcus aureus [7]; 50 µg/mL (≈ 51.9 µM) with Enterococcus faecalis. The minimum inhibitory concentration (MIC) in the data set on Staphylococcus aureus [6] came to 12.5 µg/mL (≈ 13 µM). Moreover, the selectivity ratio in data set [8] came to 5.93. In [9], this compound gave an HC5 of 74.17 µg/mL.

Turning to `CC(C)C[C@H]1NC(=O)[C@H](Cc2c(C(c3ccccc3)c3ccccc3)[nH]c3ccccc23)NC(=O)[C@@H](C(C)C)NC(=O)[C@@H]2CSC(N2)[C@H](C(C)C)NC(=O)[C@@H](C(C)C)NC(=O)[C@H](CCCCN)NC1=O`, the minimal inhibitory concentration (MIC) in the data set on Staphylococcus aureus [1] is 12.5 µg/mL (≈ 12.8 µM); in the data set on Staphylococcus aureus [2], 25 µg/mL (≈ 25.6 µM); in the data set on Bacillus subtilis, 12.5 µg/mL (≈ 12.8 µM); in the data set on Enterococcus gallinarum, 50 µg/mL (≈ 51.1 µM); in the data set on Enterococcus faecium it was 50 µg/mL (≈ 51.1 µM); in the data set with Candida albicans, 3.13 µg/mL (≈ 3.2 µM). The MIC came out at 25 µg/mL (≈ 25.6 µM) in the data set on Staphylococcus aureus [3]; 25 µg/mL (≈ 25.6 µM) with Staphylococcus aureus [4]; 25 µg/mL (≈ 25.6 µM) in data set [5]; 3.13 µg/mL (≈ 3.2 µM) in the data set on Escherichia coli; 3.13 µg/mL (≈ 3.2 µM) in the data set with Staphylococcus aureus [7]; 50 µg/mL (≈ 51.1 µM) in the data set with Enterococcus faecalis. Also, the MIC in the data set on Staphylococcus aureus [6] is 25 µg/mL (≈ 25.6 µM). In addition, the selectivity ratio in data set [8] was 2.59. In addition, in [9], the HC5 stood at 64.74 µg/mL.

As to `CC(C)C[C@H]1NC(=O)[C@H](Cc2c(C(c3ccccc3)(c3ccccc3)c3ccccc3)[nH]c3ccccc23)NC(=O)[C@@H](C(C)C)NC(=O)[C@@H]2CSC(N2)[C@H](C(C)C)NC(=O)[C@@H](C(C)C)NC(=O)[C@H](C(C)C)NC1=O`, the MIC with Staphylococcus aureus [1], in the data set on Staphylococcus aureus [2], in the data set with Bacillus subtilis, in the data set on Enterococcus gallinarum, in the data set with Enterococcus faecium and in the data set on Staphylococcus aureus [3] was over 50 µg/mL throughout. Further, the MIC (with Staphylococcus aureus [4]; in data set [5]; with Enterococcus faecalis; in the data set with Staphylococcus aureus [6]) was over 50 µg/mL throughout.

For the compound `CC(C)C[C@H]1NC(=O)[C@H](Cc2c(C(c3ccccc3)c3ccccc3)[nH]c3ccccc23)NC(=O)[C@@H](CCCCN)NC(=O)[C@@H]2CSC(N2)[C@H](C(C)C)NC(=O)[C@@H](C(C)C)NC(=O)[C@H](C(C)C)NC1=O`, the MIC in the data set on Staphylococcus aureus [1] worked out at 25 µg/mL (≈ 25.6 µM); with Staphylococcus aureus [2], 25 µg/mL (≈ 25.6 µM); in the data set with Bacillus subtilis, 25 µg/mL (≈ 25.6 µM); with Enterococcus gallinarum it was 50 µg/mL (≈ 51.1 µM); with Enterococcus faecium, 50 µg/mL (≈ 51.1 µM); in the data set with Candida albicans, 3.13 µg/mL (≈ 3.2 µM). Besides, the minimum inhibitory concentration (MIC) in the data set with Staphylococcus aureus [3] was 25 µg/mL (≈ 25.6 µM); in the data set with Staphylococcus aureus [4] it was 25 µg/mL (≈ 25.6 µM); in data set [5] it was 25 µg/mL (≈ 25.6 µM); in the data set on Escherichia coli, 3.13 µg/mL (≈ 3.2 µM); in the data set with Staphylococcus aureus [7], 3.13 µg/mL (≈ 3.2 µM); in the data set on Enterococcus faecalis, 25 µg/mL (≈ 25.6 µM). Besides, the MIC in the data set with Staphylococcus aureus [6] came out at 25 µg/mL (≈ 25.6 µM). The selectivity ratio in data set [8] was over 4. The same compound showed an HC5 in data set [9] of over 100 µg/mL.

As for `CC(C)C[C@H]1NC(=O)[C@H](Cc2c(C(c3ccccc3)c3ccccc3)[nH]c3ccccc23)NC(=O)[C@@H](C(C)C)NC(=O)[C@@H]2CSC(N2)[C@H](C(C)C)NC(=O)[C@@H](CCCCN)NC(=O)[C@H](C(C)C)NC1=O`, the MIC was 12.5 µg/mL (≈ 12.8 µM) with Staphylococcus aureus [1]; 12.5 µg/mL (≈ 12.8 µM) in the data set on Staphylococcus aureus [2]; 6.25 µg/mL (≈ 6.39 µM) with Bacillus subtilis; 25 µg/mL (≈ 25.6 µM) with Enterococcus gallinarum; 25 µg/mL (≈ 25.6 µM) with Enterococcus faecium; 3.13 µg/mL (≈ 3.2 µM) in the data set on Candida albicans. Also, the MIC was determined as 12.5 µg/mL (≈ 12.8 µM) with Staphylococcus aureus [3]; 12.5 µg/mL (≈ 12.8 µM) with Staphylococcus aureus [4]; 12.5 µg/mL (≈ 12.8 µM) in data set [5]; 3.13 µg/mL (≈ 3.2 µM) in the data set with Escherichia coli; 3.13 µg/mL (≈ 3.2 µM) in the data set on Staphylococcus aureus [7]; 25 µg/mL (≈ 25.6 µM) in the data set on Enterococcus faecalis. Also, in the data set on Staphylococcus aureus [6], the MIC was 12.5 µg/mL (≈ 12.8 µM). Further, the selectivity ratio in data set [8] turned out to be 3.48. The same compound gave an HC5 in data set [9] of 43.53 µg/mL.

As to `CC(C)C[C@H]1NC(=O)[C@H](Cc2c(C(c3ccccc3)c3ccccc3)[nH]c3ccccc23)NC(=O)[C@@H](C(C)C)NC(=O)[C@@H]2CSC(N2)[C@H](C(C)C)NC(=O)[C@@H](C(C)C)NC(=O)[C@H](C(C)C)NC1=O`, the MIC in the data set with Staphylococcus aureus [1], with Staphylococcus aureus [2], in the data set on Bacillus subtilis, in the data set on Enterococcus gallinarum, in the data set with Enterococcus faecium and with Staphylococcus aureus [3] was over 50 µg/mL each time. The minimum inhibitory concentration (MIC) (with Staphylococcus aureus [4]; in data set [5]; with Enterococcus faecalis; in the data set on Staphylococcus aureus [6]) was over 50 µg/mL throughout.
